Test results taken from patent publication US8465780B2, “Borate micro emulsion and method for making the same” (Nisus Corporation, priority 2006, dated 2013).

Experiments:
[1] = Borate dissolution test in 300 mm water column; type: physicochemical; conditions: 0.2 g (0.08 weight %) in 250 ml deionized water, 300 mm column
Experimental: In this example, different forms of borates were added to columns of water and a swimming pool to determine their comparative dispersion and rate of dissolution characteristics.
Two hundred and fifty (250) ml of deionized water was placed in each of 4 measuring cylinders to give a 300 mm vertical column of water in each cylinder to mimic in small scale the depth of water in a swimming pool. […] The results of the addition were then observed visually and recorded.

[2] = system: algae; assay: Algae growth suppression in lake water (Example 4); type: cell-based; conditions: 0.1 weight percent in lake water, two months outside in sun; higher = more algal growth
[3] = Free chlorine and pH in 2000 gallon swimming pools (Example 6)

OB(O)O [boric acid, reference compound]
dispersion and dissolution, observed visually [1]: mostly float on top of the water and did not completely dissolve

O.O.O.O.O=BOB1OB(OB=O)OB2OB([O-])OB([O-])OB(O1)O2.[Na+].[Na+] [disodium octaborate tetrahydrate]
dispersion and dissolution, observed visually [1]: immediately disperse and fully dissolve in a matter of seconds

O=BOB(O)OB(O)OB=O [Sodium tetraborate, sodium tetraborate]
Absorbance (Abs.) at 330 nm [2]: 0.01 Abs.

sodium hexaborate
pH for swimming pool water ([3]; 1:25 pm): 7.2-7.8 | pH for swimming pool water ([3]; 2:10 pm): 7.2-7.8 | pH for swimming pool water ([3]; 2:50 pm): 7.2-7.8 | pH for swimming pool water ([3]; 3:30 pm): 7.2-7.8 | pH for swimming pool water ([3]; 4:10 pm): 7.2-7.8 | pH for swimming pool water ([3]; 5:00 pm): 7.2-7.8 | pH for swimming pool water ([3]; 9:45 am, before calcium hypochlorate addition, 4 pounds borate per 2000 gallons): 7.2-7.8 | pH for swimming pool water ([3]; 10:00 am, time of calcium hypochlorate addition): 7.2-7.8 | pH for swimming pool water ([3]; 10:55 am): 7.2-7.8 | pH for swimming pool water ([3]; 11:15 am): 7.8-8.4 | pH for swimming pool water ([3]; 12:00 pm): 7.8-8.4 | pH for swimming pool water ([3]; 12:40 pm): 7.8-8.4
